According to patent US20240197650A1, “Combination of Cinnamaldheyde and Eugenol with Antimycotic Activity” (priority 2021, published 2024):

How the values were obtained:
[1] = tested on: C. albicans; assay: Disk diffusion method, C. albicans strains; type: cell-based
Experimental: (§1) A total of eighteen strains belonging to Candida spp. (15 C. albicans, 2 C. glabrata and 1 C. lusitaniae) derived from a collection of vaginal strains isolated in CHROMAgar Candida (BD Italia SpA, Milan, Italy) were grown on Potato Dextrose Agar (Oxoid Thermofisher SpA, Milan, Italy) at 35° C. for 24 hours.
(§2) Colonies were re-suspended in sterile saline at a density corresponding to #0.5 McFarland (opacity standard). #0.5 McF correspond to 1.4×10^6 colony forming units (CFU)/ml for C. albicans, 4.3×10^6 CFU/ml for C. glabrata and 3×10^6 CFU/ml for C. lusitaniae [Guinea J. et al., Rapid antifungal susceptibility determination for yeast isolates by use of Etest performed directly on blood samples from patients with fungemia, J Clin Microbiol. 2010 June, 48(6): 2205-12]. Then, the sensitivity test vs the two oils has been performed. The disk diffusion method was carried out as follows: for each tested strain, 4 plates of Potato Dextrose Agar (PDA) were seeded in 3 directions to produce a confluent growth, by sterile swab soaked in the cell suspension. Sorbent paper disks (Oxoid Thermofisher SpA, Milan, Italy) 6.0 mm diameter were placed on the agar surface and added with 10 μl of each essential oil. Disks soaked with 10 μg amphotericin B were used as positive control. Also disks of chlortrimazole (from 10 μg to 40 μg) were used, but the inhibition rings could not be clearly read due to the formation of a re-growth ring. Disks soaked with 10 μl pure dimethylsulphoxide (DMSO, Sigma-Aldrich, St. Louis, MO, USA) were used as negative control. The plates were incubated at 35° C. for 24 hours. All the experiments were carried out in duplicate. The inhibiting effect of the oils were considered to be effective when the inhibition ring was equal or greater than that caused by amphotericin B. For amphotericin B, an inhibition zone (IZ)≥15 mm was considered as “sensitivity”, from 10 to 14 mm as “intermediate sensitivity” and <10 mm as “resistance” [Kauser et al., Agreement of Direct Antifungal Susceptibility Testing from Positive Blood Culture Bottles with Conventional Method for Candida Species, J Clin Microbiol. 2016 February, 54(2):343-34].

[2] = tested on: C. glabrata; assay: Microdilution method MIC/MFC, C. glabrata strains; type: cell-based
Experimental: as §1
(§3) The antifungal activity of amphotericin B and of cinnamaldheyde and eugenol were tested with the microdilution method as reported by Bona et al. [Bona et al., Sensitivity of Candida albicans to essential oils: are they an alternative to antifungal agents? J Appl Microbiol. 2016 December, 121(6): 1530-1545] with small changes. All the 18 Candida spp strains were tested. For each isolated, the colonies deriving from cultures (24 hours) in PDA were diluted in saline up to a concentration of 2×10^3 CFU/ml (so obtaining a final concentration of 10 3CGU/ml). Cinnamaldehyde and eugenol were dissolved in DMSO (80% oil, 20% DMSO), then diluted in Sabouraud broth up to a concentration of 8% v/v (so obtaining a final concentration of 4% v/v). Then, in a 96-well microtiter plate ½ serial dilution of amphotericin B (range 32-0.032 μg/ml, for a final range of 16-0.016 μg/ml) and of the essential oils (range 8-0.004% v/v, for a final range of 4-0.002% v/v) were carried out. Each well was then injected with 100 μl of cell suspension. The negative control contained DMSO diluted in Sabouraud broth (at 2% v/v, for a final concentration of 1% v/v). […] Each experiment was carried out in duplicate. The Minimum Inhibitory Concentration (MIC) was determined as the concentration of the oils in the first well which is not cloudy. The Minimum Fungicidal Concentration (MFC) was determined as the lowest concentration of the oils, with the agar culture showing the complete absence of fungal growth. The determination of the amphotericin B MIC was carried out also according to the EUCAST guidelines (cutoff 1 μg/ml) [https://eucast.org/astoffungi/clinicalbreakpointsforantifungals], all the results being consistent.

[3] = tested on: Candida spp.; assay: Microdilution method MIC/MFC, 18 Candida spp. strains (distribution); type: cell-based; details: 18 strains
Experimental: as §1, §3

[4] = tested on: C. glabrata; assay: Disk diffusion method, C. glabrata strains; type: cell-based
Experimental: as §1, §2

[5] = tested on: Candida spp.; assay: Disk diffusion method, 18 Candida spp. strains (distribution); type: cell-based; details: for inhibition rings diameter, average (including 6.0 mm of the disk) / inhibition rings diameter, range (including 6.0 mm of the disk) / % inhibited strains: 18 strains; for inhibition rings diameter, average (including 6.0 mm of the disk) / inhibition rings diameter, range (including 6.0 mm of the disk): disk 10 μl oil or 10 μg amphotericin B, 35° C. 24 hours; for inhibition of the tested Candida strains (words) / inhibition rings compared with those caused by amphotericin B (10 μg): disks soaked with the oils separately; for % inhibited strains: ring equal or greater than that of amphotericin B
Experimental: as §1, §2

[6] = tested on: L. acidophilus strain La-14; assay: Disk diffusion vs L. acidophilus; type: cell-based, Lactobacillus acidophilus; details: 10 μl oil per disk; MRS agar, 37° C. 24 hours, anaerobiosis
Experimental: The antibacterial activity of cinnamaldheyde and eugenol vs L. acidophilus was studied by using the disk diffusion method (reading scheme as reported in FIG. 1) and the microdilution method (reading scheme as reported in FIG. 2). A L. acidophilus strain named La-14 (Danisco SpA, Milan, Italy) was tested.
Colonies deriving from a 24-hour culture in DeManRogosaSharpe agar (MRS, OXOID SpA, Milan, Italy) were suspended in saline up to a concentration corresponding to #0.5 McFarland. A total of 3 plates of MRS agar were seeded in 3 directions to produce a confluent growth, by sterile swab soaked in the bacterial suspension. Sorbent paper disks 6.0 mm diameter were placed on each plate and soaked with 10 μl of each oil. Disks soaked with […] pure DMSO were used as negative control. The plates were incubated at 37° C. for 24 hours in anaerobiosis (anaerogen gaspack, OXOID SpA, Milan, Italy). The experiment was carried out in duplicate.

SMILES	Diameters of the inhibition rings (including 6.0 mm of the disk) ([1]; C. albicans 1) [mm]	Diameters of the inhibition rings (including 6.0 mm of the disk) ([1]; C. albicans 2) [mm]	Diameters of the inhibition rings (including 6.0 mm of the disk) ([1]; C. albicans 3) [mm]	Diameters of the inhibition rings (including 6.0 mm of the disk) ([1]; C. albicans 4) [mm]	Diameters of the inhibition rings (including 6.0 mm of the disk) ([1]; C. albicans 5) [mm]	Diameters of the inhibition rings (including 6.0 mm of the disk) ([1]; C. albicans 6) [mm]	Diameters of the inhibition rings (including 6.0 mm of the disk) ([1]; C. albicans 7) [mm]	Diameters of the inhibition rings (including 6.0 mm of the disk) ([1]; C. albicans 8) [mm]	Diameters of the inhibition rings (including 6.0 mm of the disk) ([1]; C. albicans 9) [mm]	Diameters of the inhibition rings (including 6.0 mm of the disk) ([1]; C. albicans 10) [mm]	Diameters of the inhibition rings (including 6.0 mm of the disk) ([1]; C. albicans 11) [mm]	Diameters of the inhibition rings (including 6.0 mm of the disk) ([1]; C. albicans 12) [mm]	Diameters of the inhibition rings (including 6.0 mm of the disk) ([1]; C. albicans 13) [mm]	Diameters of the inhibition rings (including 6.0 mm of the disk) ([1]; C. albicans 14) [mm]	Diameters of the inhibition rings (including 6.0 mm of the disk) ([1]; C. albicans 15) [mm]	MFC ([2]; C. glabrata 1) [% v/v]	MIC ([2]; C. glabrata 1) [% v/v]	MFC ([2]; C. glabrata 2) [% v/v]	MIC ([2]; C. glabrata 2) [% v/v]	MFC average [3] [% v/v]	further results
C=CCc1ccc(O)c(OC)c1 [Eugenol, eugenol]	35.0	35.0	33.0	35.0	35.0	36.0	44.0	41.0	34.0	34.5	34.0	34.0	35.0	34.0	34.0	0.032	0.032	0.125	0.125	0.067	MIC average [3]: 0.043 % v/v; Diameters of the inhibition rings (including 6.0 mm of the disk) ([4]; C. glabrata 1): 35.0 mm; Diameters of the inhibition rings (including 6.0 mm of the disk) ([4]; C. glabrata 2): 30.5 mm; inhibition rings diameter, average (including 6.0 mm of the disk) [5]: 35.2 mm; inhibition rings diameter, range (including 6.0 mm of the disk) [5]: 30.5-41 mm; inhibition of the tested Candida strains (words) [5]: inhibited the growth of all tested Candida strains; inhibition rings compared with those caused by amphotericin B (10 μg) [5]: notably greater; % inhibited strains [5]: 100% (18/18); inhibition ring diameter [6]: did not produced any inhibition ring
O=CC=Cc1ccccc1 [Cinnamaldheyde, cinnamaldehyde]	65.0	70.0	67.0	66.0	71.0	67.0	75.0	67.0	70.5	72.5	75.0	75.0	71.0	75.0	70.0	0.008	0.004	0.016	0.016	0.01	MIC average [3]: 0.0048 % v/v; Diameters of the inhibition rings (including 6.0 mm of the disk) ([4]; C. glabrata 1): 55.0 mm; Diameters of the inhibition rings (including 6.0 mm of the disk) ([4]; C. glabrata 2): 55.0 mm; inhibition rings diameter, average (including 6.0 mm of the disk) [5]: 69 mm; inhibition rings diameter, range (including 6.0 mm of the disk) [5]: 55-75 mm; inhibition of the tested Candida strains (words) [5]: inhibited all tested strains; inhibition rings compared with those caused by amphotericin B (10 μg) [5]: notably greater; inhibition of the tested Candida strains (words) ([5]; listed as cinnamaldheyde): inhibited the growth of all tested Candida strains; % inhibited strains [5]: 100% (18/18); inhibition ring diameter [6]: 10 mm
